Consider four compounds from patent US10736927B2, “Pharmaceutical compositions for preventing or treating inflammatory bowel diseases” (INSERM (INSTITUT NATIONAL DE LA SANTE ET DE LA RECHERCHE …, priority 2015, dated 2020).

Assay [1] deals with AhR. As to the kind of experiment: AhR activation luciferase reporter assay in H1L1.1c2 cells. The class given is cell-based, mouse. Particulars: bacterial culture supernatant, relative to culture media (FIG. 13a). As to the method:
The H1L1.1c2 cell line containing a stably integrated DRE-driven firefly luciferase reporter plasmid pGudLuc1.1 was provided by Michael S. Denison (University of California, Davis, Calif., USA) and has been described previously (47, 48). The cells were seeded in 96-well plates at 7.5×10^4 cells/well in 100 μl of complete DMEM medium (10% heat-inactivated fetal calf serum, 50 IU/ml penicillin, and 50 μg/ml streptomycin; Sigma-Aldrich) and cultured (37° C., 10% CO2) for 24 h prior to treatment. Fresh stools from healthy and IBD patients in remission and from WT, Card9^−/−, MWT, MCard9^−/−, Ido1^−/− and germ-free mice were collected, weighed and stored at −80° C. until processing. The stools were suspended, diluted to 100 mg/ml in PBS, centrifuged (5000 g, 15 min, 4° C.) and filtered (0.2 μm; VWR, Fontenay-sous-Bois, France). Lactobacillus and Bifidobacterium spp. were grown in MRS medium (BD Difco, Le Pont De Claix, France) supplemented with 10% cysteine (Sigma-Aldrich) at 37° C. under respectively aerobic and anaerobic conditions. Allobaculum stercoricanis (DSMZ 13633) was cultivated under the recommended culture condition listed in the DSMZ. Cultured supernatants of these bacteria were stored at −80° C. until processing. […] After adding 100 μl of Promega-stabilized luciferase reagent, the luciferase activity was measured using a luminometer. […]

Assay [2] concerns Card9−/−→GF mice. As to the kind of experiment: DSS-induced colitis in Card9−/−→GF mice supplemented with three Lactobacillus strains. The class given is in vivo. The following applies: antagonist 100 μg/mouse i.p. three times per week, data not shown. As to the method:
To induce colitis, mice were administered drinking water supplemented with 2% (wt./vol.) dextran sulfate sodium (DSS; MP Biomedicals, LLC, Aurora, Ohio, USA) for 7 days and were then allowed to recover by drinking unsupplemented water for the next 5 days. The 6-formylindolo(3,2-b)carbazole (Ficz; Enzo Life Sciences, Lausen, Switzerland) and the AHR antagonist CH223191 (AHR; Sigma-Aldrich) were resuspended in dimethyl sulfoxide (DMSO; Sigma-Aldrich) and administered intraperitoneally. Ficz was injected 1 day after DSS administration (1 μg/mouse). For the AHR treatment, WT→GF and Card9−/−→GF mice (4- to 5-week-old females) were treated (100 μg/mouse) three times per week until euthanization. Controls consisted of mice injected with DMSO vehicle alone for the Ficz and AHR treatment groups. […] The resulting sequences were aligned, inspected by eye, and compared with the online tool BLAST. Strains were identified based on the highest hit scores. These strains were deposited in the Collection Nationale de Cultures de Microorganismes (CNCM) of the Institut Pasteur and named L. murinus CNCM I-5020, L. reuteri CNCM I-5022, and L. taiwanensis CNCM I-5019. […] In all treatments, body weight, blood in stool, and stool consistency were analyzed daily. The severity of colitis was assessed using the disease activity index (DAI) as previously described (6).

Assay [3] relates to Il22, RegIIIγ, RegIIIβ, Il17A transcript expression in colon. As to the kind of experiment: Colon transcript expression by qRT-PCR in DSS-exposed mice treated with Ficz. The class given is in vivo, mouse. As to the method:
(§1) To induce colitis, the mice were administered drinking water supplemented with 2% (w/v) dextran sulfate sodium (DSS; MP Biomedicals, LLC, Aurora, Ohio, USA) for 7 days, and then allowed to recover by drinking unsupplemented water for the next 5 days (FIG. 7 a). 6-formylindolo[3,2-b]carbazole (Ficz) was obtained from Enzo Life Sciences (Lausen, Switzerland) resuspended in dimethyl sulfoxide (DMSO; Sigma-Aldrich) and was administered intraperitoneally 1 day after DSS administration (1 μg/mouse). Controls consisted of mice injected with DMSO vehicle alone. For the antifungal treatment, mice were fed 0.5 mg/ml fluconazole in the drinking water (Sigma-Aldrich) 1 week before DSS administration and every day thereafter, as previously described^18. Body weight, gross blood, and stool consistency were analyzed daily. The severity of colitis was assessed using the disease activity index (DAI) as previously described (6).
Total RNA was isolated from colon samples using an RNeasy Mini Kit (Qiagen, Hilden, Germany), according to the manufacturer's instructions. Quantitative RT-PCR was performed using SuperScript II Reverse Transcriptase (Life Technologies, Saint Aubin, France) and then a Takyon SYBR Green PCR kit (Eurogentec, Liege, Belgium) in a StepOnePlus apparatus (Applied Biosystems, Foster City, Calif., USA) with specific mouse oligonucleotides. We used the 2^−ΔΔCt quantification method with mouse Gapdh as an endogenous control and the WT or MWT group as a calibrator.
For orientation: Quantitative PCR measures a nucleic acid by following its amplification.

For assay [4], the system named is cytokines secreted by colon explants. Kind of assay: Cytokines secreted by colon explants (ELISA) of DSS-exposed mice treated with Ficz. It counts as in vivo, mouse. Here is the method: as §1
MLNs and spleens were sieved through a 70-μm cell strainer (BD, Le Pont De Claix, France) in complete RPMI 1640 medium (10% heat-inactivated fetal calf serum, 2 mM L-glutamine, 50 IU/ml penicillin, and 50 μg/ml streptomycin; Sigma-Aldrich), and 1×10^6 cells per well were cultured (37° C., 10% CO2) for 48 h with stimulation by phorbol 12-myristate 13-acetate (PMA, 50 ng/ml; Sigma-Aldrich) and ionomycin (1 μM; Sigma-Aldrich). The culture supernatant was frozen at −80° C. until processing. To measure the cytokine levels in the colonic explants, tissues from the medium colon were isolated and rinsed in phosphate buffered saline (PBS; Gibco, Paisley, United Kingdom). The colonic explants were cultured (37° C., 10% CO2) overnight in 24-well tissue culture plates (Costar, Corning, Amsterdam, The Netherlands) in 1 ml of complete RPMI 1640 medium. The culture supernatants were collected and stored at −80° C. until processing. ELISAs were performed on the supernatants to quantify mouse cytokines according to the manufacturer's instructions: IL10, IL17A, and IFNγ (Mabtech, Nacka Strand, Sweden); IL22 (eBioscience, San Diego, Calif., USA); and IL6 (R&D Systems, Minneapolis, Minn., USA). For the colonic explants, cytokine concentrations were normalized according to the dry weight of each colonic explant.

In assay [5] the test system is DSS-exposed MCard9−/− mice. As to the kind of experiment: DSS-induced colitis with Ficz injection in microbiota-colonized germ-free mice. The following applies: Ficz 1 μg/mouse i.p. 1 day after DSS; Ficz-treated MCard9−/− mice vs non-treated counterparts during recovery. It counts as in vivo. Here is the method:
Fresh stool samples from WT or Card9^−/− mice were immediately transferred to an anaerobic chamber, in which the stool samples were suspended and diluted 1:100 in LYHBHI medium (BD Difco, Le Pont De Claix, France) supplemented with cellobiose (1 mg/ml; Sigma-Aldrich, St. Louis, Mo., USA), maltose (1 mg/ml; Sigma-Aldrich), and cysteine (0.5 mg/ml; Sigma-Aldrich). Four- to five-week-old WT germ-free mice were randomly assigned to two groups and inoculated via oral gavage with 400 μl of fecal suspension from the conventional wild-type (MWT) or Card9^−/− (MCard9^−/−) mice and maintained in separated isolators. One aliquot of each fecal suspension was stored at −80° C. […]
To induce colitis, the mice were administered drinking water supplemented with 2% (w/v) dextran sulfate sodium (DSS; MP Biomedicals, LLC, Aurora, Ohio, USA) for 7 days, and then allowed to recover by drinking unsupplemented water for the next 5 days (FIG. 7 a). […] Body weight, gross blood, and stool consistency were analyzed daily. The severity of colitis was assessed using the disease activity index (DAI) as previously described (6).
Colon samples for histological studies were maintained at 4° C. in 4% paraformaldehyde and then embedded in paraffin. […] The number of cleaved caspase-3-positive cells in 100 μm of analyzed colon was counted. Ki67 was quantified as a percentage of the total height of each crypt. […]

Assay [6] relates to DSS-exposed MWT and MCard9−/− mice. As to the kind of experiment: DSS-induced colitis with antifungal treatment in MWT and MCard9−/− mice. It counts as in vivo, mouse. Particulars: fluconazole 0.5 mg/ml in drinking water from 1 week before DSS. Here is the method: as §1
The mark [7] stands for this setting: defect in MCard9−/− mice, Ficz 1 μg/mouse i.p.
[8] abbreviates: Ficz-treated vs non-treated MCard9−/− mice.

Lactobacillus reuteri: in assay [1], the “AhR activation by cultured supernatants” value was “strongly activate AhR”.
`Cc1ccccc1N=Nc1ccc(NC(=O)c2ccnn2C)c(C)c1` [AHR antagonist, CH223191]: the “effects of the three Lactobacillus strains in the presence of an AHR antagonist” value in assay [2] is listed as “abrogated”.
Take `O=Cc1c2c(cc3c1=Nc1ccccc1-3)=Nc1ccccc1-2` [Ficz, 6-formylindolo[3,2-b]carbazole]: in assay [3] (colon, Ficz treatment), the Il17 expression result is on record as “not altered”. Besides, in assay [3] (setting [7]), the Il22 colonic expression result was “rescued”, the RegIIIβ colonic expression entry is listed as “rescued” and the RegIIIγ colonic expression result is “rescued”. Further, in assay [4] (setting [8]), the “IFNgamma in the colon” value was “No significant differences”, the “IL6 in the colon” value is given as “No significant differences” and the “IL10 in the colon” value is “No significant differences”. Besides, the Il17 production result in assay [4] (colon explants cultured 24 h, Ficz treatment) is given as “not altered”. Besides, the “colitis severity (body weight loss, histology score, colon shortening)” value in assay [5] is listed as “weaker colitis severity”.
For the compound `OC(Cn1cncn1)(Cn1cncn1)c1ccc(F)cc1F` [antifungal, fluconazole], in assay [6], the “colitis phenotype (weight loss and DAI) of MCard9−/− vs MWT mice” value is on record as “did not modify the phenotype”.
